Source: the NIST ThermoML archive (doi:10.1021/je900093h)
Numbers after ± are expanded uncertainties.

Tests used:
[1] = molar enthalpy of vaporization or sublimation; conditions: 304.79 K; Liquid; Static calorimetry
[2] = for vapor or sublimation pressure: Liquid, Calculated from knudsen effusion weight loss
[3] = Molar enthalpy of transition or fusion; conditions: Crystal
[4] = molar heat capacity at constant pressure; conditions: 101.33 kPa, Vacuum adiabatic calorimetry

CCCCCCCCCC(=O)OCC [ethyl decanoate]
molar enthalpy [1]: 16.7 ± 0.335 kcal/mol | vapor or sublimation pressure ([2]; 293.77 K): 0.00169 ± 0.00022 kPa | vapor or sublimation pressure ([2]; 298.67 K): 0.00267 ± 0.00035 kPa | vapor or sublimation pressure ([2]; 298.72 K): 0.00267 ± 0.00035 kPa | vapor or sublimation pressure ([2]; 303.68 K): 0.00414 ± 0.00056 kPa | vapor or sublimation pressure ([2]; 308.61 K): 0.00648 ± 0.00091 kPa | vapor or sublimation pressure ([2]; 313.57 K): 0.01 ± 0.0015 kPa | vapor or sublimation pressure ([2]; 318.32 K): 0.0152 ± 0.0023 kPa | vapor or sublimation pressure ([2]; 323.24 K): 0.0219 ± 0.0034 kPa | Triple point temperature ([2]; Crystal): 253.6 ± 0.31 K | Molar enthalpy of transition or fusion [3]: 7.717 ± 0.0526 kcal/mol | molar heat capacity at constant pressure ([4]; 5 K, Crystal): 0.498 ± 0.019 J/K/mol | molar heat capacity at constant pressure ([4]; 10 K, Crystal): 4.477 ± 0.053 J/K/mol | molar heat capacity at constant pressure ([4]; 15 K, Crystal): 11.92 ± 0.12 J/K/mol | molar heat capacity at constant pressure ([4]; 20 K, Crystal): 21.04 ± 0.19 J/K/mol | molar heat capacity at constant pressure ([4]; 25 K, Crystal): 30.97 ± 0.27 J/K/mol | molar heat capacity at constant pressure ([4]; 30 K, Crystal): 41.18 ± 0.34 J/K/mol | molar heat capacity at constant pressure ([4]; 35 K, Crystal): 51.36 ± 0.43 J/K/mol | molar heat capacity at constant pressure ([4]; 40 K, Crystal): 61.27 ± 0.51 J/K/mol | molar heat capacity at constant pressure ([4]; 45 K, Crystal): 71.2 ± 0.59 J/K/mol | molar heat capacity at constant pressure ([4]; 50 K, Crystal): 80.91 ± 0.66 J/K/mol | molar heat capacity at constant pressure ([4]; 60 K, Crystal): 98.99 ± 0.81 J/K/mol | molar heat capacity at constant pressure ([4]; 70 K, Crystal): 115.2 ± 0.9 J/K/mol | molar heat capacity at constant pressure ([4]; 80 K, Crystal): 130.2 ± 1.1 J/K/mol | molar heat capacity at constant pressure ([4]; 90 K, Crystal): 144.3 ± 1.2 J/K/mol | molar heat capacity at constant pressure ([4]; 100 K, Crystal): 157.4 ± 1.3 J/K/mol | molar heat capacity at constant pressure ([4]; 110 K, Crystal): 169.3 ± 1.4 J/K/mol | molar heat capacity at constant pressure ([4]; 120 K, Crystal): 180 ± 1.5 J/K/mol | molar heat capacity at constant pressure ([4]; 130 K, Crystal): 189.6 ± 1.5 J/K/mol | molar heat capacity at constant pressure ([4]; 140 K, Crystal): 198.3 ± 1.6 J/K/mol | molar heat capacity at constant pressure ([4]; 150 K, Crystal): 206.8 ± 1.7 J/K/mol | molar heat capacity at constant pressure ([4]; 160 K, Crystal): 214.7 ± 1.7 J/K/mol | molar heat capacity at constant pressure ([4]; 170 K, Crystal): 222.5 ± 1.8 J/K/mol | molar heat capacity at constant pressure ([4]; 180 K, Crystal): 230.5 ± 1.9 J/K/mol | molar heat capacity at constant pressure ([4]; 190 K, Crystal): 238.8 ± 1.9 J/K/mol | molar heat capacity at constant pressure ([4]; 200 K, Crystal): 247.4 ± 2 J/K/mol | molar heat capacity at constant pressure ([4]; 210 K, Crystal): 256.7 ± 2.1 J/K/mol | molar heat capacity at constant pressure ([4]; 220 K, Crystal): 266.7 ± 2.2 J/K/mol | molar heat capacity at constant pressure ([4]; 230 K, Crystal): 277.5 ± 2.2 J/K/mol | molar heat capacity at constant pressure ([4]; 240 K, Crystal): 288.9 ± 2.3 J/K/mol | molar heat capacity at constant pressure ([4]; 250 K, Crystal): 301.2 ± 2.4 J/K/mol | molar heat capacity at constant pressure ([4]; 253.6 K, Crystal): 305.7 ± 2.5 J/K/mol | molar heat capacity at constant pressure ([4]; 253.6 K, Liquid): 386.5 ± 3.1 J/K/mol | molar heat capacity at constant pressure ([4]; 260 K, Liquid): 388.1 ± 3.1 J/K/mol | molar heat capacity at constant pressure ([4]; 270 K, Liquid): 391.3 ± 3.2 J/K/mol | molar heat capacity at constant pressure ([4]; 280 K, Liquid): 395.2 ± 3.2 J/K/mol | molar heat capacity at constant pressure ([4]; 290 K, Liquid): 399.6 ± 3.2 J/K/mol | molar heat capacity at constant pressure ([4]; 298.15 K, Liquid): 403.5 ± 3.3 J/K/mol | molar heat capacity at constant pressure ([4]; 300 K, Liquid): 404.4 ± 3.3 J/K/mol | molar heat capacity at constant pressure ([4]; 310 K, Liquid): 409.6 ± 3.3 J/K/mol | molar heat capacity at constant pressure ([4]; 320 K, Liquid): 415 ± 3.3 J/K/mol | molar heat capacity at constant pressure ([4]; 330 K, Liquid): 420.6 ± 3.4 J/K/mol | molar heat capacity at constant pressure ([4]; 340 K, Liquid): 426.4 ± 3.4 J/K/mol | molar heat capacity at constant pressure ([4]; 350 K, Liquid): 432.3 ± 3.5 J/K/mol | molar heat capacity at constant pressure ([4]; 360 K, Liquid): 438.3 ± 3.5 J/K/mol | molar heat capacity at constant pressure ([4]; 370 K, Liquid): 444.5 ± 3.6 J/K/mol
